{
  "source": "patent US5098826A",
  "about": "“Detection, isolation and purification of Clostridium difficile toxin A with toxin receptors” (Virginia Tech Intellectual Properties, Inc., priority 1990, dated 1992)",
  "molecules": {"B1": {"name": "Carcinoembryonic Antigen: human protein known to contain the X antigen (protein, UniProt P06731 35-685, looked up)", "Cell adhesion molecule CEACAM5": "KLTIESTPFNVAEGKEVLLLVHNLPQHLFGYSWYKGERVDGNRQIIGYVIGTQQATPGPAYSGREIIYPNASLLIQNIIQNDTGFYTLHVIKSDLVNEEATGQFRVYPELPKPSISSNNSKPVEDKDAVAFTCEPETQDATYLWWVNNQSLPVSPRLQLSNGNRTLTLFNVTRNDTASYKCETQNPVSARRSDSVILNVLYGPDAPTISPLNTSYRSGENLNLSCHAASNPPAQYSWFVNGTFQQSTQELFIPNITVNNSGSYTCQAHNSDTGLNRTTVTTITVYAEPPKPFITSNNSNPVEDEDAVALTCEPEIQNTTYLWWVNNQSLPVSPRLQLSNDNRTLTLLSVTRNDVGPYECGIQNELSVDHSDPVILNVLYGPDDPTISPSYTYYRPGVNLSLSCHAASNPPAQYSWLIDGNIQQHTQELFISNITEKNSGLYTCQANNSASGHSRTTVKTITVSAELPKPSISSNNSKPVEDKDAVAFTCEPEAQNTTYLWWVNGQSLPVSPRLQLSNGNRTLTLFNVTRNDARAYVCGIQNSVSANRSDPVTLDVLYGPDTPIISPPDSSYLSGANLNLSCHSASNPSPQYSWRINGIPQQHTQVLFIAKITPNNNGTYACFVSNLATGRNNSIVKSITVSASGTSPGLSA"}},
  "key": {"toxin A": {"molecular_target": "toxin A (Clostridioides difficile, UniProt P16154)", "sequence (P16154 whole entry, looked up)": "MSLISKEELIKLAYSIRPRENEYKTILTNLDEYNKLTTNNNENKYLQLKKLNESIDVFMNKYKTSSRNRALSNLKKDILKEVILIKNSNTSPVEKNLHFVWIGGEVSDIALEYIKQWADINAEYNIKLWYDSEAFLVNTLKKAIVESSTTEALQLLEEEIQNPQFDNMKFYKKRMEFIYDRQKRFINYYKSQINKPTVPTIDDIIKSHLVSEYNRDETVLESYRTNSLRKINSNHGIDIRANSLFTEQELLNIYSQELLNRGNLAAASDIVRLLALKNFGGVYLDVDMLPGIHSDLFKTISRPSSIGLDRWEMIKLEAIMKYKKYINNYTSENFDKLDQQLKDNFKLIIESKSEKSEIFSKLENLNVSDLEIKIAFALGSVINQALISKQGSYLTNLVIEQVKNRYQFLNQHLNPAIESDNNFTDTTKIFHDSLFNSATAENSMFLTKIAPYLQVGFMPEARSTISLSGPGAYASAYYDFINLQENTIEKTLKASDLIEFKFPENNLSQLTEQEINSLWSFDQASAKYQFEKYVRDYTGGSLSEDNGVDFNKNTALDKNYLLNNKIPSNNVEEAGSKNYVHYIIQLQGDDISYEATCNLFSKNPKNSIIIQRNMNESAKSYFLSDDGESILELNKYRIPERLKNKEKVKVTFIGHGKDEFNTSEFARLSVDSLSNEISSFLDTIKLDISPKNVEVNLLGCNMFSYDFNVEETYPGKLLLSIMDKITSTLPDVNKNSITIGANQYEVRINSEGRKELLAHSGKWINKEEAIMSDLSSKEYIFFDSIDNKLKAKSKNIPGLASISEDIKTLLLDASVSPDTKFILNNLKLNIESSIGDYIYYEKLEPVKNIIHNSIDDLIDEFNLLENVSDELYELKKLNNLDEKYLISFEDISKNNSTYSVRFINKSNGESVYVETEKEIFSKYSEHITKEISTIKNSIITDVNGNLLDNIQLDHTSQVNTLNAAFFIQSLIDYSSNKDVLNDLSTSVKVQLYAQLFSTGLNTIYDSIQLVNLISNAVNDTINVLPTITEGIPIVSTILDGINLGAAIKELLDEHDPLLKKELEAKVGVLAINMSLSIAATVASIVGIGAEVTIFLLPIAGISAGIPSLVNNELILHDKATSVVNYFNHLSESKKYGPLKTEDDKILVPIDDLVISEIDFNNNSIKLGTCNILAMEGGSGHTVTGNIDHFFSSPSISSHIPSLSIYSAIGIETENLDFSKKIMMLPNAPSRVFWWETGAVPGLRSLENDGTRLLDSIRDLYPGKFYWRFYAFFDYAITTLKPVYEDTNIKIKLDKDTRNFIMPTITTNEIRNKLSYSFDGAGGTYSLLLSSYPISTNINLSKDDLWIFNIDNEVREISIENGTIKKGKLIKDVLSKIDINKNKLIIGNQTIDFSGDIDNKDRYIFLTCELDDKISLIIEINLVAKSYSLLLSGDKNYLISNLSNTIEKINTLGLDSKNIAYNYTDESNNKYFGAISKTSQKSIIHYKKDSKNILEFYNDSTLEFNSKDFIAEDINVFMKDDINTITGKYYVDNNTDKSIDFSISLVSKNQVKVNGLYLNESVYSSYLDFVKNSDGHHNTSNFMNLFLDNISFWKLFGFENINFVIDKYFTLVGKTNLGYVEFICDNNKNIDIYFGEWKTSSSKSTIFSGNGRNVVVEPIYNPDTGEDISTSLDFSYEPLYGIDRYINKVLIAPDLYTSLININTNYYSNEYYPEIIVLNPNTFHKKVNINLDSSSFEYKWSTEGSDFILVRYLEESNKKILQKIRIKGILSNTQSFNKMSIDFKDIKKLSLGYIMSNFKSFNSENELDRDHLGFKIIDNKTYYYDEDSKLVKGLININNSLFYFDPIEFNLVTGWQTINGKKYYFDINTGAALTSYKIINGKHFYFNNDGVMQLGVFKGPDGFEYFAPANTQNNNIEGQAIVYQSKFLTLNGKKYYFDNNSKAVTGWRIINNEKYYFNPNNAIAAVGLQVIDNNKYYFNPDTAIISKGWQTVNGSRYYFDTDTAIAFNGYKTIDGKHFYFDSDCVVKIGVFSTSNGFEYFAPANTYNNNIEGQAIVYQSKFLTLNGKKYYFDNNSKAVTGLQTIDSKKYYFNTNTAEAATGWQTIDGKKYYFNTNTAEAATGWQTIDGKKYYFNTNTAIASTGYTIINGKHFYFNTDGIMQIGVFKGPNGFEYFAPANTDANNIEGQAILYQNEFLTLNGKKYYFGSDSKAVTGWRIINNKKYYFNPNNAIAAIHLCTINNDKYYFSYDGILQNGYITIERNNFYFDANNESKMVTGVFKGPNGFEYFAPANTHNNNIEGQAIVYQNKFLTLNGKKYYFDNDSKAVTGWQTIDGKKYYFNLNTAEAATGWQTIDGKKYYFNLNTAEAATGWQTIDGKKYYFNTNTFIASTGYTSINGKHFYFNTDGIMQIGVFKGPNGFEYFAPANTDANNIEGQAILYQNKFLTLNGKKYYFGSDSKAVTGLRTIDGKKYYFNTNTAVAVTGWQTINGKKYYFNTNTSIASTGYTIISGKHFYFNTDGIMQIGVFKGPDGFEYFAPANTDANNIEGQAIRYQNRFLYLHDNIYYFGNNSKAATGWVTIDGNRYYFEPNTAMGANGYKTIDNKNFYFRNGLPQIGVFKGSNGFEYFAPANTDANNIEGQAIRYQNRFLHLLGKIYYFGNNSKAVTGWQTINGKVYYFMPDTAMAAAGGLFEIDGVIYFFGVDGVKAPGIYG", "conditions": "cited from earlier work; for toxin A binding: Krivan et al., U.S. Pat. No. 4,863,852, Clark et al."}, "C. difficile toxin A": {"molecular_target": "T1, C. difficile toxin A (Clostridioides difficile, UniProt P16154)", "T1 construct": "The organism was cultured, and the toxin A was purified from the culture filtrate; made in house; host or cells: C. difficile VPI strain 10463 (natural producer, culture filtrate; not recombinant)", "assay": "Crossed immunoelectrophoresis (X-IEP) toxin A binding assay", "parameters": "species or system Clostridium difficile", "conditions": "100 μg toxin A mixed with 500 μg/ml conjugate, on ice 10 minutes, electrophoresis at 4° C., pH 8.6", "protocol": "100 μg toxin A and 500 μg/ml of each of the oligosaccharide-HSA conjugates of Table 1 in PBS were mixed and incubated on ice for 10 minutes, then 5 μl of this mixture was assayed by X-IEP for toxin A binding on a 5×5 cm glass slide substantially as described by Lyerly et al., J. Clin. Microbiol. 17, 72-78 (1983). Briefly, wells (1 mm in diameter) were cut in gels composed of 1.2% (wt/vol) low electroendosmotic agarose (Sigma Chemical Co.) in 0.025M Tris-Tricine buffer (0.6 g agarose in 50 ml buffer) (pH 8.6). The Tris-Tricine buffer is prepared by combining the following and adding deionized water up to a volume of 1 L: Tris, 9.8 g; Ca-lactate, 0.106 g; Tricine, 4.3 g; NaN3, 0.2 g. For the first dimension, oligosaccharide-HSA sample (5 μl) was placed in a sample well in the lower corner of the plate. 0.1% bromphenol blue was placed in an upper corner well as a tracing dye, and the plate was subjected to electrophoresis at 10 V/cm at constant current and 4° C. The second dimension of the plate consisted of a 1.2% (wt/vol) agarose gel containing 0.1 ml of goat antiserum to C. difficile culture filtrate. Electrophoresis was performed at 10 V/cm for about 3 hours at 4° C. Gels were washed in 20 mM sodium phosphate with 130 mM NaCl, pH 7.4, stained with a staining solution (5 g Coomassie Blue R-250, 450 ml EtOH, […], and 450 ml deionized H2 O), and de-stained in the staining solution minus Coomassie Blue.\nThe principle behind the X-IEP assay is that the rate of migration of toxin A in an electric field is dependent on the net charge of the molecule, which is dependant on its isoelectric point and the pH of the electrophoresis medium. Toxin A has a slight negative charge at pH 8.6, which is the pH at which the X-IEP was carried out. The toxin migrates slowly in the applied electric field. HSA, on the other hand, has a relatively high net negative charge at pH 8.6. […]"}},
  "data": [
    {"molecule": "CC(=O)N[C@H]1C(O)O[C@H](CO)[C@@H](O[C@@H]2O[C@H](CO)[C@H](O)[C@H](O[C@H]3O[C@H](CO)[C@H](O)[C@H](O)[C@H]3O)[C@H]2O)[C@@H]1O", "note": "(some centres unmarked) [Galα(1→3)Galβ(1→4)GlcNAc]", "values": [
      {"measurement": "toxin A binding at 37° C.", "setting": "toxin A; 37° C., U.S. Pat. No. 4,863,852", "result": "not detected"},
      {"measurement": "toxin A binding", "setting": "toxin A", "result": "binds"},
      {"measurement": "temperature of maximal binding of toxin A", "setting": "toxin A; U.S. Pat. No. 4,863,852", "result": 4, "unit": "°C"}
    ]},
    {"molecule": "CC(=O)N[C@H]1C(O)O[C@H](CO)[C@@H](O[C@@H]2O[C@H](CO)[C@H](O)[C@H](O[C@H]3O[C@H](CO)[C@H](O)[C@H](O)[C@H]3O)[C@H]2O[C@@H]2O[C@@H](C)[C@@H](O)[C@@H](O)[C@@H]2O)[C@@H]1O", "note": "(some centres unmarked) [Galα(1→3)[Fucα-(1→2)]Galβ(1→4)GlcNAc, Galα(1→3)[Fucα(1→2)]Galβ(1→4)GlcNAc]", "values": [
      {"measurement": "toxin A binding", "setting": "toxin A", "result": "does not bind"}
    ]},
    {"molecule": "CC(=O)N[C@H]1[C@H](O[C@H]2[C@@H](O)[C@@H](CO)O[C@@H](O[C@H]3[C@H](O)[C@@H](O)C(O)O[C@@H]3CO)[C@@H]2O)O[C@H](CO)[C@@H](O[C@@H]2O[C@H](CO)[C@H](O)[C@H](O)[C@H]2O)[C@@H]1O", "note": "(some centres unmarked) [LNnT, Galβ(1→4)GlcNAcβ(1→3)Galβ(1→4)Glc]", "values": [
      {"measurement": "toxin A binding", "setting": "toxin A", "result": "prevents toxin A from binding"},
      {"measurement": "Toxin A Binding X-IEP (altered migration of toxin A)", "setting": "C. difficile toxin A", "result": "did not bind the toxin"}
    ]},
    {"molecule": "Secretory Component: human protein known to contain the X antigen", "values": [
      {"measurement": "Toxin A Binding X-IEP (altered migration of toxin A)", "setting": "C. difficile toxin A; listed as SC", "result": "same behavior"}
    ]},
    {"molecule": "B1", "values": [
      {"measurement": "Toxin A Binding X-IEP (altered migration of toxin A)", "setting": "C. difficile toxin A; listed as CEA", "result": "same behavior"}
    ]}
  ]
}
